Values of other authors in patent US5045452A, “Method for evaluating nephrotoxicity” (Brigham and Women's Hospital, priority 1988, dated 1991).

System: N-acetyl-beta-D-glucosaminidase
Conditions: exposed workers

Question: With `[Pb]` [lead] as the molecule, how does the “urinary acetyl glucosaminidase excretion” value read?
Answer: Its value is “elevated”.
